According to US11510945B2, “Compositions and methods for enhancing ion transporter activity and uses thereof” (THE ROYAL INSTITUTION FOR THE ADVANCEMENT OF …, priority 2018, dated 2022):

What was measured:
GFP-wt-CFTR = test: Image Correlation Spectroscopy of GFP-wt-CFTR aggregation at the plasma membrane; assay type: cell-based, human; conditions: for CFTR clustering / platforms (degree of aggregation) at the plasma membrane: primary human bronchial epithelial cells, fenretinide 1.25 μM 24 h pretreatment, Thaps 2 μM 10-20 min
Method: FIGS. 3A-E are confocal images of GFP-wt-CFTR expressed at the plasma membrane of pHBE cells under control conditions (Ctr) (FIG. 3A); after 10-20 min treatment with 2 μM Thapsigargin (FIG. 3B); after treatment with 1.25 μM Fenretinide (FIG. 3C); after treatment with 1.25 μM Fenretinide and Thapsigargin (same conditions as above) (FIG. 3D); or after treatment with 1.25 μM Fenretinide+Thapsigargin (same conditions as above)+Amitriptyline (13 μM for 40 min) (FIG. 3E).
FIG. 3F is a graph showing the quantification of CFTR aggregation and accumulation at the cell surface under control conditions (Ctr), after treatment with Thapsigargin (Thaps), after treatment with Fenretinide (Fen), and after treatment with Fenretinide and Thapsigargin (Fen+Thaps).
It was next tested whether fenretinide and/or zinc could have an effect on the ability of native CFTR-expressing epithelial cells to transport chloride. CFTR is known to become localized in relatively stable platforms during viral infection (Abu-Arish et al., 2015). The formation of such platforms expressing CFTR was measured following treatment with fenretinide. The Image Correlation Spectroscopy technique was used to measure the degree of aggregation of GFP-wt-CFTR at the plasma membrane of primary human bronchial epithelial cells. The degree of aggregation is proportional to the mean number of CFTR channels per cluster or platform. Confocal images of CFTR at the plasma membrane were collected for analysis under control (Ctr), thapsigargin (Thaps), fenretinide (Fen) or a combination of Fen+Thaps. Cells were pretreated or not with fenretinide at 1.25 μM for 24 h before imaging whereas Thaps (2 μM) exposures were acute (10-20 min).

[1] = test system: cytoplasmic phospholipases (cPLA2); test: cPLA2 activity in lung epithelial cells (commercial kit); assay type: cell-based, human
Method: FIG. 1 is a graph showing the effect of fenretinide and Zn^2+ treatment on the activity of cytoplasmic phospholipases (cPLA2). Lung epithelial cells were treated with 1.25 μM fenretinide (Fen) and/or 12.5 μM zinc sulfate (Zn^2+) for 12, 24, 48 or 72 hours and the activity of PLA2 was assessed using a commercially available ELISA kit (Abcam, cat. No. ab133090). All statistical analyses were performed using GraphPad™ software (GraphPad, San Diego, Calif., USA). Statistical significance of differences was evaluated using unpaired t-test with Welch's correction. Data are represented as means±SD (*p 0.05, **p 0.01, ***p 0.001, ****p 0.0001). All experiments were done in triplicates (n=3).
The effect of fenretinide (Fen) and/or zinc (Zn^2+) ions on the lipid metabolism in human airway epithelial cells was assessed the modulation of cytoplasmic phospholipases (cPLA2) activity. cPLA2 activity, as evaluated by colorimetric assay, was decreased following fenretinide treatment in a time dependent fashion, starting 24h after treatment (FIG. 1).

[2] = test system: airway epithelial cells overexpressing the delF508 mutated form of CFTR (delF508/delF508); test: DHA and AA fatty acid levels in airway epithelial cells overexpressing delF508 CFTR; assay type: cell-based, human; conditions: 72h, relative to untreated cells; for DHA levels: 1.25 μM fenretinide and/or 12.5 μM zinc sulfate
Method: FIGS. 2A-C are graphs showing the effect of fenretinide, Zn^2+ treatment on the level of DHA (FIG. 2A), AA (FIG. 2B) and their ratio (FIG. 2C) in lung epithelial cells overexpressing a mutant form of CFTR (CFTR-delF508) or native CFTR (wt CFTR). Lung epithelial cells grown as 80% confluent monolayer of were treated for 72h with 1.25 μM fenretinide and/or 12.5 μM zinc sulfate. The levels of AA and DHA were assessed as previously described in Guilbault et al. 2008, 2009. All statistical analyses were performed using GraphPad™ software (GraphPad, San Diego, Calif., USA). Statistical significance of differences was evaluated using unpaired t-test with Welch's correction. Data are represented as means±SD (*p≤0.05, **p≤0.01, ***p≤0.001, ****p≤0.0001). All experiments were done in triplicates (n=3).
It was next assessed whether fenretinide and zinc modulate the levels of omega-3 (docosahexaenoic acid, DHA) and omega-6 (arachidonic acid, AA) fatty acids in airway epithelial cells overexpressing the delF508 mutated form of CFTR (delF508/delF508) or native CFTR (wt CFTR). […] For AA levels, all treatments led to a significant decrease in AA levels in delF508 CFTR-expressing cells (relative to untreated cells), but not in native CFTR-expressing cells.

F508del-CFTR = target: T1, F508del-CFTR (Homo sapiens, UniProt P13569, DEL508-508); test: Ussing chamber F508del-CFTR conductance across basally permeabilized polarized cells; assay type: cell-based; conditions: 1.25 μM Fen alone for 3 days, 1 μM VX-809 last 24h
T1 construct: host or cells: polarized bronchial epithelial cells
T1 sequence (P13569 with tags, fused parts or gaps DEL508-508): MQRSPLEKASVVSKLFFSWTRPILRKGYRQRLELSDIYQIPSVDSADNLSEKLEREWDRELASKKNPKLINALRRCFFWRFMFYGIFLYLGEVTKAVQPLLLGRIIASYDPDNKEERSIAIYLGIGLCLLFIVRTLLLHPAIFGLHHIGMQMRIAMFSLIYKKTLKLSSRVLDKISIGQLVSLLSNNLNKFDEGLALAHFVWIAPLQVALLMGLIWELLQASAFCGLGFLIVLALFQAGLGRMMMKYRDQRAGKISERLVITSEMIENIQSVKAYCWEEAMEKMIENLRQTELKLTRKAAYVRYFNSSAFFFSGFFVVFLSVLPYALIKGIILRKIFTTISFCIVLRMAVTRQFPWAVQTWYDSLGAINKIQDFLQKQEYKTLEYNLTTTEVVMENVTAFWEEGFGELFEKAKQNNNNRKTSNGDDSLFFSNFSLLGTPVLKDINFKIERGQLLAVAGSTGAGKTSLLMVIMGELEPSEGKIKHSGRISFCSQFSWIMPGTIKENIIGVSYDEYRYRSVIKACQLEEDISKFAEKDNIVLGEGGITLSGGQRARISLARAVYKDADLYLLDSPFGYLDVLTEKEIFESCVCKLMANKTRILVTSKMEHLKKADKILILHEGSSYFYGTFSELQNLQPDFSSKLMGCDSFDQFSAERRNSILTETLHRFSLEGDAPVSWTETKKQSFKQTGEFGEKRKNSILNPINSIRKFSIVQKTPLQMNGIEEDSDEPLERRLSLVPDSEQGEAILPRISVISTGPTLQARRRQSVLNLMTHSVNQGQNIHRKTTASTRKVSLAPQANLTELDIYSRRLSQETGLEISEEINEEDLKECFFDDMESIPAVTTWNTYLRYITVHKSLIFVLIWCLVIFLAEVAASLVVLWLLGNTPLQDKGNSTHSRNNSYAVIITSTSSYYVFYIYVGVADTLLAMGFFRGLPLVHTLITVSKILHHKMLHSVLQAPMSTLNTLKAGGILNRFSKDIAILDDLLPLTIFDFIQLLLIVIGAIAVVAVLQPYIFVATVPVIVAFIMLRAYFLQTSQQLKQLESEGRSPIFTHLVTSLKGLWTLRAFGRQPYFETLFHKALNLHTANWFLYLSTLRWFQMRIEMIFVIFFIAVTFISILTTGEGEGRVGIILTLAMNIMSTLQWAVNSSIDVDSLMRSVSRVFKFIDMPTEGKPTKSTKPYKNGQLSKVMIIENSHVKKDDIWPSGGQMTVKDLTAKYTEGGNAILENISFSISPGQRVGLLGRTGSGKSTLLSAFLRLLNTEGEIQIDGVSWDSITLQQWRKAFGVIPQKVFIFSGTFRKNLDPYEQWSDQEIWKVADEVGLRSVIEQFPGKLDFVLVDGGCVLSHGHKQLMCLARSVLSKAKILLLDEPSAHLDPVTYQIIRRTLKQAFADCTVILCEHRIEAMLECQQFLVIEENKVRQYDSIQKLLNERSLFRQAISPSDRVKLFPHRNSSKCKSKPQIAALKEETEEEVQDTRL
Method: FIG. 5 is a graph showing the effect of Zinc and/or Fenretinide treatment on F508del-CFTR function after partial rescue by VX-809 (809) in the absence and presence of 50 μM of the potentiator genistein (acts similarly to VX770). Ussing Chambers were used to measure F508del-CFTR conductance by measuring the short-circuit current across basally permeabilized polarized cells in response to forskolin (FSK) or forskolin+genistein (FSK+Gen). Treatment: Cells were treated basally or not with 1.25 μM fenretinide (Fen) or the combination a combination of 1.25 μM Fenretinide and 12.5 μM Zinc (FenZn) for 3 days. 1 μM VX-809 was added bilaterally during the last 24h. Unpaired student t-test was used for statistical analysis.
FIG. 6 is a graph showing the effect of Zinc and/or Fenretinide treatment on F508del-CFTR mediated secretion in the absence of VX-809. Ussing Chambers were used to measure F508del-CFTR functional expression as short-circuit current across polarized and basally permeabilized bronchial epithelial cells in response to forskolin (FSK) or forskolin+genistein (FSK+Gen). Cells were treated basally or not with 1.25 μM Fenretinide (Fen) and/or 12.5 μM Zinc (Zn) for 3 days. […]

Row | Compound | CFTR clustering / platforms (degree of aggregation) at the plasma membrane (GFP-wt-CFTR) | DHA levels [2] | DHA/AA ratio [2] | other results
1 | CN(C)CCC=C1c2ccccc2CCc2ccccc21 [Amitriptyline] |  |  |  | Induction of CFTR platform formation by fenretinide+thapsigargin (GFP-wt-CFTR; in the presence of Amitriptyline 13 μM for 40 min): inhibited
2 | CC1=C(/C=C/C(C)=C/C=C/C(C)=C/C(=O)Nc2ccc(O)cc2)C(C)(C)CCC1 [fenretinide, all-trans-N-(4-hydroxyphenyl) retinamide] | did not affect CFTR clustering | significant increase | significant increase | cPLA2 activity ([1]; 1.25 μM fenretinide, 12, 24, 48 or 72 hours): decreased; F508del-CFTR channel function (F508del-CFTR): significant increase
3 | C/C=C(/C)C(=O)O[C@H]1C(C)=C2[C@H]([C@@H]1OC(=O)CCCCCCC)[C@@](C)(OC(C)=O)C[C@H](OC(=O)CCC)[C@@]1(O)[C@H]2OC(=O)[C@@]1(C)O [thapsigargin] | induces some CFTR platforms |  |  | 
4 | zinc sulfate |  | significant increase | significant increase | cPLA2 activity ([1]; 12.5 μM zinc sulfate in the absence of fenretinide, 72h): significantly increase; cPLA2 activity, effect of zinc added to fenretinide ([1]; 12.5 μM zinc sulfate with 1.25 μM fenretinide, 24h and 48h): potentiate the effect of fenretinide
